From patent publication US20080293681A1, “SPRAYABLE PHARMACEUTICAL COMPOSITIONS COMPRISING A VITAMIN D DERIVATIVE AND AN OILY PHASE” (GALDERMA S.A., priority 2005, published 2008)

Key:
[1] = Stability of calcitriol in Miglyol 812 (caprylic/capric triglycerides), HPLC assay against reference substance; format: physicochemical; details: 30 ppm in Miglyol 812 with 0.4% BHT
Excerpt: (§1) The following example describes the stability data for calcitriol in the various excipients preferred for the composition according to the invention, including caprylic/capric triglycerides and cetearyl isononanoate. Stability of calcitriol in Miglyol 812 (caprylic/capric triglycerides) Solution of calcitriol at 30 ppm in qs 100% of Miglyol 812 in the presence of 0.4% of BHT. Assaying technique by HPLC against reference substance. At the initial time (T0), it is considered that the composition contains 100% of calcitriol. Measured concentration of calcitriol as % relative to T0: […]

[2] = Stability of calcitriol in Cetiol SN (cetearyl isononanoate), HPLC assay against reference substance; format: physicochemical; details: 30 ppm in Cetiol SN with 0.4% BHT
Excerpt: as §1, with “Cetiol SN (cetearyl isononanoate)” for “Miglyol 812 (caprylic/capric triglycerides)”, “Cetiol SN (cetearyl isononanoate)” for “Miglyol 812”

C=C1/C(=C\C=C2/CCC[C@]3(C)[C@@H]([C@H](C)CCCC(C)(C)O)CC[C@@H]23)C[C@@H](O)C[C@@H]1O [calcitriol]
Measured concentration of calcitriol as % relative to T0 ([1]; +4° C., T 2 weeks): 98.3%
Measured concentration of calcitriol as % relative to T0 ([1]; +4° C., T 4 weeks): 105.2%
Measured concentration of calcitriol as % relative to T0 ([1]; +40° C., T 2 weeks): 91%
Measured concentration of calcitriol as % relative to T0 ([1]; +40° C., T 4 weeks): 93.8%
Measured concentration of calcitriol as % relative to T0 ([1]; AT, T 2 weeks): 95.1%
Measured concentration of calcitriol as % relative to T0 ([1]; AT, T 4 weeks): 98.0%
Measured concentration of calcitriol as % relative to T0 ([2]; +4° C., T 2 weeks): 98.6%
Measured concentration of calcitriol as % relative to T0 ([2]; +4° C., T 4 weeks): 98.1%
Measured concentration of calcitriol as % relative to T0 ([2]; +40° C., T 2 weeks): 99.0%
Measured concentration of calcitriol as % relative to T0 ([2]; +40° C., T 4 weeks): 98.9%
Measured concentration of calcitriol as % relative to T0 ([2]; AT, T 2 weeks): 98.7%
Measured concentration of calcitriol as % relative to T0 ([2]; AT, T 4 weeks): 98.4%
